Common to all, as to test: growth of human tumour cells (NCI), 48 h
The subject of experiment [1] is SN12C renal.
Experiment [2] has as its system CAKI-1 renal.
Experiment [3] relates to SK-MEL-2 melanoma.
Experiment [4] has as its system HCC-2998 colon.
The subject of experiment [5] is HOP-62 NSCLC.
Experiment [6] deals with K-562 leukemia.
In experiment [7] the test system is NCI/ADR-RES ovarian.
For experiment [8], the system named is CCRF-CEM leukemia.
The subject of experiment [9] is UACC-257 melanoma.
Experiment [10] relates to HS 578T breast.

Values joined by “and” are separate entries in the source; they are usually repeats but may differ in a detail not shown here. Equal entries are not always repeated.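 Cultured in 96-well plates, cells were exposed to test compound for 48 hours across five concentrations. Abbreviation: GI50, concentration required for 50% inhibition of growth. TGI denotes the concentration required for complete inhibition of growth.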

`Cn1cc(S(=O)(=O)NC(=O)Nc2ccc(Cl)cc2)c(=O)c2ccc(F)cc21`: the TGI in experiment [1], in experiment [2], in [3], in [4], in experiment [5] and in [6] was > 100 µM throughout. Further, the TGI in experiment [7], in experiment [8], in experiment [9] and in experiment [10] was > 100 µM throughout.

Consider `CCN1CCC(CNC(=O)c2ccc(N)cc2)N1CC` (stereo not given), for which the TGI in [1], in experiment [2], in experiment [3], in experiment [4], in experiment [5] and in experiment [6] was > 100 µM throughout. In addition, the TGI in [7], in [8], in experiment [9] and in [10] was > 100 µM throughout.

Regarding `Nc1nc(Cl)c(Cl)c(NCC2(O)CCC2)n1`, the TGI in experiment [1] was > 100 µM; in experiment [2], 29.6 µM; in experiment [3], > 100 µM; in [4], > 100 µM; in [5], > 100 µM; in experiment [6] it was > 100 µM. In addition, the TGI in experiment [7], in experiment [8], in [9] and in experiment [10] was > 100 µM each time.

For `Cc1ccc(C2(c3ccc(F)cc3)OC(=O)c3ccccc32)c(O)c1` (stereo not given), the TGI in [1] is 27.9 µM; in experiment [2] it was 24.9 µM; in experiment [3], 30.2 µM; in [4], 38.4 µM; in experiment [5], 28.8 µM; in [6], > 100 µM. In addition, the TGI was determined as 46.8 µM in experiment [7], 94.2 µM in experiment [8], 31 µM in experiment [9] and 77.4 µM in experiment [10].

Consider `CC1(C)COC2=C(C1)C(=O)c1ccccc1C2=O`, for which the TGI in experiment [1] is 2.76 µM; in experiment [2], 3.9 µM; in experiment [3], 3.88 µM; in experiment [4], 3.08 µM; in experiment [5], 3.45 µM; in [6] it was 1.52 µM. The TGI in experiment [7] was determined as 1.94 µM; in [8] it was 5.77 µM; in experiment [9] it was 2.11 µM; in experiment [10], 7.95 µM.

Regarding `O=c1c(Cc2ccc(Cl)cc2)nnc2sc(-c3ccc(-c4ccc(Cl)cc4Cl)o3)nn12`, the TGI in experiment [1], in experiment [2], in experiment [3], in [4], in experiment [5] and in experiment [6] was > 100 µM each time. The TGI in experiment [7], in experiment [8], in experiment [9] and in [10] was > 100 µM each time.

Consider `CCCCCCCCCCCCCC[n+]1ccc(C)cc1`, for which the GI50 in experiment [1] was 1.56 µM; in experiment [2], 0.933 µM; in experiment [3] it was 1.33 µM; in experiment [4] it was 0.708 µM; in [5], 1.27 µM; in [6] it was 0.309 µM. Also, the GI50 in experiment [7] is 11.8 µM; in [8] it was 0.818 µM; in [9] it was 0.763 µM; in experiment [10] it was 2.39 µM. Besides, the TGI was found to be 4.11 µM in [1]; 2.66 µM in experiment [2]; 2.83 µM in [3]; 2.04 µM in experiment [4]; 2.61 µM in experiment [5]; 3.73 µM in experiment [6]. For the same molecule, the TGI in [7] stood at 37 µM; in experiment [8], 5.11 µM; in experiment [9] it was 2.48 µM; in [10] it was 8.8 µM.

`CCc1c(-c2ccc(OC)cc2)oc(OC)c(C)c1=O`: the TGI in [1], in experiment [2], in experiment [3], in experiment [4], in [5] and in [6] was > 100 µM in each case. The TGI in experiment [7], in experiment [8], in experiment [9] and in experiment [10] was > 100 µM throughout.

Regarding `CCC(C)C1=C(O)[N+]2([O-])Oc3ccc(-c4c(O)c(O)c(-c5ccc(OC(C)=O)cc5)c(OC(C)=O)c4OC(C)=O)cc3OC2(C(C)CC)C(=O)N1O` (stereo not given), the TGI is > 50 µM in [1]; > 50 µM in experiment [2]; > 50 µM in experiment [3]; 41.5 µM in [4]; > 50 µM in experiment [5]; 49.1 µM and > 50 µM in [6]. The TGI in experiment [7], in [8], in [9] and in experiment [10] was > 50 µM in each case.

For the molecule `O=C(/C(=C\I)c1ccccc1)c1ccccc1`, the TGI in experiment [1] is 34.9 µM; in experiment [2] it was 3.07 µM; in experiment [3], 21.4 µM; in experiment [4] it was 16.1 µM; in experiment [5], 13.7 µM; in experiment [6] it was 26.7 µM. In addition, the TGI was 44.1 µM in [7], 54 µM in experiment [8], 15.8 µM in experiment [9] and 19.1 µM in experiment [10].

Regarding `CC1(C)OC2OC(C(COS(=O)(=O)C(F)(F)F)N=[N+]=[N-])C(OC(=O)c3ccccc3)C2O1` (stereo not given), the TGI in experiment [1], in experiment [2], in experiment [3], in experiment [4], in [5] and in [6] was > 100 µM in each case. In addition, the TGI in experiment [7], in experiment [8], in [9] and in experiment [10] was > 100 µM in each case.

Consider `c1ccc2c(c1)cc1n2CCc2c-1[nH]c1ccccc21`, for which the TGI in [1], in experiment [2], in [3], in [4], in [5] and in experiment [6] was > 10 µM throughout. Besides, the TGI in experiment [7], in [8], in [9] and in [10] was > 10 µM in each case.

The values are drawn from PubChem BioAssay (NCI).
